Laboratory results as given in patent US20260263555A1, “ANNEXIN A1 DELAYED DOSING” (Reso Ther Pharma A/S, priority 2023, published 2026).
Entries after “also recorded” stand apart in the source; their conditions may differ. No end group written: not given here.

Columns and labels:
[1] = tested on: rat model of acute myocardial infarction; assay: Delayed Annexin A1 peptide dosing in a rat model of acute myocardial infarction (30 minutes ischemia, 24 hours reperfusion; Evans blue/TTC infarct size); type: in vivo, Sprague Dawley rats; settings: vs vehicle
Method: Myocardial infarction was induced by 30 minutes ischemia via obstruction of coronary perfusion by occlusion of the left coronary artery followed by 24 hours reperfusion. Sprague Dawley rats were treated by administration with Peptide 1 (30 ug/kg) three times with treatment initiation either at the time of reperfusion (T0 h, T3 h, T6 h) (Group 1), or with a delayed treatment initiation starting either at 1 hour post establishment of reperfusion (T1 h, T4 h, T7 h) (Group 2), or at 2 hours post establishment of reperfusion (T2 h, T5 h, T8 h) (Group 3).
At the end of 24 hours reperfusion period, the left coronary artery was reoccluded and Evans blue dye solution injected. Hearts were excised from the rat and stored at −20° C. before being sliced into 1 mm thick transverse sections. Heart sections were incubated with triphenyltetrazolium chloride (TTC, 1%) at 37° C. for 30 minutes to demarcate the viable and nonviable myocardium within the risk zone. Area at risk and infarcted area were determined using image software.

[2] = tested on: recruitment of neutrophils to the site of injury/inflammation; settings: models of myocardial I/R, mesentery I/R, glycogen peritonitis and IL1 air pouch; cited from earlier work

AMVSEFLKQAWFIENEEQEYVQTLKSSKGGPGSAVSPYPTFNPSSDV (AMVSEFLKQAWFIENEEQEYVQTLKSSKGGPGSAVSPYPTFNPSSDV-NH2; ends and bridges not checked) [Peptide 1]
infarct size ([1]; Group 1: 30 ug/kg three times (T0 h, T3 h, T6 h), first dosage at establishment of reperfusion): significantly reduced infarct size
infarct size ([1]; Group 2: 30 ug/kg three times (T1 h, T4 h, T7 h), first dosage 1 hour post establishment of reperfusion): reduced infarct size to a similar degree; also recorded: significantly reduced infarct size
infarct size ([1]; Group 3: 30 ug/kg three times (T2 h, T5 h, T8 h), first dosage 2 hours post establishment of reperfusion): reduced infarct size to a similar degree; also recorded: significantly reduced infarct size

Ac2-26: Annexin A1 peptide which mimics the 2nd to the 26th amino acids of the 54-amino acid N-terminal region (Ac-AMVSEFLKQAWFIENEEQEYVQTVK; UniProt P04083 2-26, looked up, fragment)
recruitment of neutrophils to the site of injury/inflammation [2]: significantly reduce the recruitment of neutrophils
